In series [1] the test system is RMA/S tumour cells. The series can be described thus: LDH killing assay, murine NK cells with NK-sensitive RMA/S cells. To be noted: 5 μM GANT61 vs carrier control. The class given is cell-based. The procedure:
(§1) FIG. 4. Gli1 is important for specific tumour cell killing by murine NK cells. (A) NK cells were isolated from WT C57BL/6 mice and were treated using either the Gli1/Gli2 inhibitor GANT61 (squares) or carrier control (circles). LDH killing assays (left panel) and VITAL assays (right panel) were performed to assess specific cell killing of NK-sensitive RMA/S tumour cells. Left panel: Representative data of n=3 independent experiments. Right panel: data from 2 individual mice per genotype. (B) To specifically investigate the contribution of Gli1 towards NK cell effector function, LDH killing assays (left panel) and VITAL assays (right panel) were performed using NK cells isolated from both WT (circles) and Gli1 knockout (KO, squares) mice. Left panel: representative data from n=2 independent experiments. Right panel: data from 2 individual mice per genotype.
(§2) It was hypothesised that the therapeutic effect of L-type Cav channel agonists may be conserved between CD8+ T and NK cells. To investigate this hypothesis, NK cells were isolated from spleens of C57BL/6 wildtype mice using a MACS negative isolation protocol, and expanded in vitro for 7 days in the presence of 500 IU/L IL-2. […]

Series [2] has as its system RMA/S tumour cells. The series can be described thus: VITAL assay, murine NK cells with NK-sensitive RMA/S cells. To be noted: 5 μM GANT61 vs carrier control. The class given is cell-based. The procedure:
as §1, §2

The test system of series [3] is B cells (as target cells). The series can be described thus: LDH assay, murine cytotoxic CD4+ T cells (OT-II) with B cells as target cells. Format: cell-based. To be noted: 5 μM, 24 h prior to co-culture, vs carrier control. The procedure: FIG. 8. Gli1 mediates specific cell killing by murine cytotoxic CD4+ T cells. Cytotoxic CD4+ T cells were generated from OT-II mice and treated with 5 μM Gli1/Gli2 inhibitor GANT61 (grey) or carrier control (black) for 24 hours before an LDH assay was performed to assess specific cell killing. Data is from n=3 independent experiments.
Experiments 1, 2, 3 and 4 identify Gli1 transcription as a mediator of specific cell killing in CD8+ CTLs and in NK cells, in humans and in mice. To investigate whether Gli1 also plays a role in driving the effector function of CD4+ T cells, cells were isolated from the spleens of OT-II mice and CTLs were generated. Cells were treated using GANT61 at a concentration of 5 μM or carrier control, 24 h prior to being co-cultured with B cells (as target cells) at the effector:target ratios indicated in FIG. 8.

In series [4] the test system is cytotoxic CD4+ T cells. The series can be described thus: Flow cytometric analysis of Granzyme B and IFNγ in cytotoxic CD4+ T cells. To be noted: 5 μM, 24 h. Format: cell-based, mice. The procedure:
FIG. 9. GzmB content and IFNγ secretion are unaffected by Gli inhibition in cytotoxic CD4+ T cells. Cytotoxic CD4+ cells were generated from OT-II mice and treated with 5 μM GANT61 or carrier control on day 7 for 24 h prior to flow cytometric analysis of Granzyme B (GzmB) and IFNγ levels on day 8. (A) Representative flow cytometry plots in unstimulated (top panel) or restimulated CD4+ T cells (bottom panel). (B) Quantification of steady state GzmB levels and IFNγ levels upon restimulation. Data is from n=3 independent experiments.
(§3) To investigate this further, the effect of GANT61 inhibition on Granzyme B and IFNγ secretion was investigated. Cytotoxic CD4+ cells were generated from OT-II mice and treated with 5 μM GANT61 or carrier control on day 7 for 24 h prior to flow cytometric analysis of Granzyme B (GzmB) and IFNγ levels on day 8. NK cells were isolated from C57BL/6 mice and treated with 10 μM GANT61 or carrier control (EtOH) overnight (˜18 hours) prior to analysis of intracellular granzyme B (GzmB) and IFNγ expression by flow cytometry. In both cytotoxic CD4+ cells (FIG. 9) and NK cells (FIG. 10), the GzmB content and IFNγ secretion were unaffected by Gli inhibition.

For series [5], the system named is NK cells. The series can be described thus: Flow cytometric analysis of Granzyme B and IFNγ in NK cells. Format: cell-based, mice. To be noted: 10 μM, overnight (~18 hours). The method, then: FIG. 10. GzmB content and IFNγ secretion are unaffected by Gli inhibition in NK cells. NK cells were isolated from C57BL/6 mice and treated with 10 μM GANT61 or carrier control (EtOH) overnight (˜18 hours) prior to analysis of intracellular granzyme B (GzmB) and IFNγ expression by flow cytometry. (A) Representative flow cytometry plots. (B) Quantification of flow cytometry plots. Data is from n=2 mice, 1 independent experiment.
as §3

In series [6] the test system is K562 target cells. The series can be described thus: Flow-cytometry based killing assay, human Vγ9Vδ2 gammadelta T cells with K562 target cells. To be noted: pre-treated overnight with GANT61, co-culture 24 h. Format: cell-based. The procedure: FIG. 12. GLI1 is important for tumour cell killing of human Vγ9Vδ2 gammadelta T cells and treatment with L-type voltage gated Ca2+ channel agonist FPL 64176 increases killing capacity. PBMCs were isolated from Buffy Coats of healthy donors using SepMate PBMC Isolation Tubes. Vγ9Vδ2 expansion was induced by plating PBMCs at 1×10^6 concentration with 1 μM of Zoledronate in the presence of 100 IU/mL IL-2 and 120 IU/mL IL-15. Cells were split every 2-3 days from day 6 until day 20. Killing assays were conducted between day 16-20. (A) Vγ9Vδ2 T lymphocytes were incubated with Gli1/2 inhibitor GANT61 or EToH (carrier control) overnight and subsequently co-cultured with K562 target cells for 24 h at the indicated effector to target ratios and subjected to a flow-cytometry based killing assay. n=1 individual donor. (B) Vγ9Vδ2 cells were pre-incubated with 10 μM FPL 64176 or EToH (carrier control) before being co-cultured with K562 target cells at indicated effector to target ratios and subjected to a flowcytometric cytotoxicity assay in the presence of 10 μM FPL 64176 or EToH (carrier control). Killing was assessed after 24 hours. Tumour cell killing normalised to carrier treated cells at a 10:1 effector:target ratio. n=4 individual healthy donors from 2 independent experiments. […]

The test system of series [7] is P815 target cells. Format: cell-based, human. The method, then:
FIG. 15. GLI inhibitor GANT61 reduces tumour cell killing of human CD8+ cytotoxic T lymphocytes. PBMCs were isolated from Buffy Coats of healthy donors using SepMate PBMC Isolation Tubes. CD8+ T cells were isolated using negative selection (Miltenyi Biotec, CD8+ T Cell Isolation Kit) and plated with ImmunoCult™ Human CD3/CD28/CD2 T Cell Activator at 25 μl/mL in TexMACS cell culture media supplemented with 1001 U/mL human IL-2 and 100 U/ml Penicillin/Streptomycin. Human CTLs were incubated with Gli1/2 inhibitor GANT61 or EToH (carrier control) overnight and subsequently co-cultured with anti-CD3ε pulsed P815 target cells for 3 h at the indicated effector to target ratios and subjected to an LDH cytotoxicity assay. (A) Representative graph, (B) Quantification of N=3 donors normalised to killing of carrier treated cells at a 10:1 effector:target ratio. Error bars indicate SD. n=3 donors from 2 independent experiments. It is also known that Hh signalling in murine CD8+ T cells is not inducible via administration of extracellular Hh ligands (de la Roche et al. (2013)). Instead, Hh induction occurs via the modulation of L-type voltage-gated calcium (Cav) channels downstream of the T cell receptor. For example, Hanna et al. (2021) report that nifedipine-sensitive Cavs control Gli1 induction in naïve CD8+ T cells and CD8+ CTLs following TCR stimulation. […]

SMILES strings stand for the structures.

This note sets out measurements from patent US20250222028A1, “ENGINEERED IMMUNE CELL PLATFORM” (Cancer Research Technology Limited, priority 2022, published 2025).

Consider `CN(C)c1ccccc1CN1CCCN(Cc2ccccc2N(C)C)C1c1ccncc1` [GANT61], for which, in series [1], the “decrease in cell killing” value is about 15%. In addition, the “specific tumour cell killing” value in series [2] was “greatly reduced”. Also, the “reduction in specific cell killing” value in series [3] was 50%. Besides, in series [4], the GzmB content result is recorded as “unaffected” and the IFNγ secretion entry is listed as “unaffected”. Besides, in series [5], the GzmB content result was “unaffected” and the IFNγ secretion result is recorded as “unaffected”. The “killing capacity of K562 target cells by gammadelta T cells” value in series [6] is recorded as “reduced killing capacity”. The “tumour cell killing of human CD8+ cytotoxic lymphocytes” value in series [7] is “reduces”.
